Data as given in ChEMBL document CHEMBL1129577, “Identification of a novel oxazolidinone (U-100480) with potent antimycobacterial activity” (1996).

How the values were obtained:
[1] = tested on: Mycobacterium tuberculosis; experiment: In vitro anti-mycobacterial activity against multiple resistant strains of Mycobacterium tuberculosis at 0.50 ug/mL; format: functional
[2] = tested on: Mycobacterium tuberculosis; experiment: In vitro anti-mycobacterial activity against multiple resistant strains of Mycobacterium tuberculosis at 0.125 ug/mL; format: functional

`CC(=O)NC[C@H]1CN(c2ccc(N3CCS(=O)(=O)CC3)c(F)c2)C(=O)O1` showed a No. of strains [1] of 4.
In the case of `CC(=O)NC[C@H]1CN(c2ccc(N3CCSCC3)c(F)c2)C(=O)O1` [SUTEZOLID], the No. of strains [2] is reported as 3 and the No. of strains [1] is reported as 2.
